Values quoted from earlier work, collected in patent publication US9040535B2, “Crystalline molecular comlpexes of tadalafil” (THAR PHARMACEUTICALS, INC., priority 2009, dated 2015).

Legend:
[1] = n-octanol/buffer pH 7.4

- apparent partition coefficient (log P)app [1]: 1.7
- solubility in chloroform (chloroform): sparingly soluble
- solubility in dioxane (dioxane): soluble
- solubility in tetrahydrofuran (tetrahydrofuran): sparingly soluble
- solubility in water (water): practically insoluble
Compound: CN1CC(=O)N2[C@H](c3ccc4c(c3)OCO4)c3[nH]c4ccccc4c3C[C@@H]2C1=O [Tadalafil, (6R-trans)-6-(1,3-benzodioxol-5-yl)-2,3,6,7,12,12a-hexahydro-2methyl-pyrazino[1′,2′:1,6]pyrido[3,4-b]indole-1,4-dione]
